Values quoted from earlier work, collected in US10045960B2, “Coating composition and medical device” (TERUMO KABUSHIKI KAISHA, priority 2012, dated 2018).

Conditions: hydropathy index according to Kyte and Doolittle, J. Mol. Biol., 157, 105-132 (1982)

H.I. (hydropathy index)	Compound
−0.8	N[C@@H](CO)C(=O)O [Serine]
4.5	CC[C@H](C)[C@H](N)C(=O)O [Isoleucine]
−3.5	N[C@@H](CCC(=O)O)C(=O)O [Glutamic acid]
−0.7	C[C@@H](O)[C@H](N)C(=O)O [Threonine]
2.5	N[C@@H](CS)C(=O)O [Cysteine]
1.8	C[C@H](N)C(=O)O [Alanine]
−3.2	N[C@@H](Cc1c[nH]cn1)C(=O)O [Histidine]
4.2	CC(C)[C@H](N)C(=O)O [Valine]
−3.5	N[C@@H](CC(=O)O)C(=O)O [Aspartic acid]
2.8	N[C@@H](Cc1ccccc1)C(=O)O [Phenylalanine]
1.9	CSCC[C@H](N)C(=O)O [Methionine]
−1.3	N[C@@H](Cc1ccc(O)cc1)C(=O)O [Tyrosine]
−3.5	NC(=O)C[C@H](N)C(=O)O [Asparagine]

Compound	H.I. (hydropathy index)
N[C@@H](Cc1c[nH]c2ccccc12)C(=O)O [Tryptophan]	−0.9
N=C(N)NCCC[C@H](N)C(=O)O [Arginine]	−4.5
NCCCC[C@H](N)C(=O)O [Lysine]	−3.9
